Key:
Myzus persicae = Myzus persicae - spray test; format: in vivo; settings: 100 g/ha, Chinese cabbage leaf discs, after 6 days
Description: Solvent: 78 parts by weight of acetone
(§1) • 1.5 parts by weight of dimethylformamide Emulsifier: alkylaryl polyglycol ether
(§2) To produce an appropriate active ingredient formulation, 1 part by weight of active ingredient is dissolved using the specified parts by weight of solvent and made up with water containing an emulsifier concentration of 1000 ppm until the desired concentration is attained. To produce further test concentrations, the preparation is diluted with emulsifier-containing water.
Discs of Chinese cabbage leaves (Brassica pekinensis) infested by all stages of the green peach aphid (Myzus persicae) are sprayed with an active ingredient formulation of the desired concentration.
After 6 days, efficacy in % is determined. 100% means that all the aphids have been killed; 0% means that none of the aphids have been killed.

Ctenocephalides felis [1] = test: Ctenocephalides felis - oral test (CTECFE); format: in vivo; settings: 20 ppm in citrated cattle blood, adult cat fleas, after 2 days
Description: (§3) Solvent: dimethyl sulphoxide
(§4) For the purpose of producing an appropriate active ingredient formulation, 10 mg of active ingredient are mixed with 0.5 ml of dimethyl sulphoxide. Dilution with citrated cattle blood gives the desired concentration.
(§5) About 20 unfed adult cat fleas (Ctenocephalides felis) are placed into a chamber which is closed at the top and bottom with gauze. A metal cylinder whose bottom end is closed with parafilm is placed onto the chamber. The cylinder contains the blood/active ingredient preparation, which can be imbibed by the fleas through the parafilm membrane.
(§6) After 2 days, the kill in % is determined 100% means that all of the fleas have been killed; 0% means that none of the fleas have been killed.

[2] = test system: Anopheles funestus strain FUMOZ-R; test: Anopheles test (ANPHFU surface treatment); format: in vivo; settings: Anopheles funestus, read-out: efficacy (mortality in %)
Description: (§7) Solvent: acetone+2000 ppm rapeseed oil methyl ester (RME)
(§8) To produce an appropriate active ingredient formulation, the active ingredient is dissolved in the solvent (2 mg/ml). The active ingredient formulation is pipetted onto a glazed tile and, after it has dried off, adult mosquitoes of the species Anopheles funestus strain FUMOZ-R (Hunt et al., Med Vet Entomol. 2005 September; 19(3):271-5) are placed onto the treated tile. The exposure time is 30 minutes.
(§9) 24 hours after contact with the treated surface, mortality in % is determined 100% means that all mosquitoes have been killed; 0% means that none of the mosquitoes have been killed.

Musca domestica = Musca domestica - test; format: in vivo; settings: 100 ppm, adult houseflies, after 2 days
Description: as §3
(§10) To produce an appropriate active ingredient formulation, 10 mg of active ingredient are mixed with 0.5 ml of dimethyl sulphoxide, and the concentrate is diluted with water to the desired concentration.
Vessels containing a sponge treated with sugar solution and the active ingredient formulation of the desired concentration are populated with 10 adult houseflies (Musca domestica).
After 2 days, the kill in % is determined 100% means that all of the flies have been killed; 0% means that none of the flies have been killed.

Ctenocephalides felis [3] = test: Ctenocephalides felis - in vitro contact tests with adult cat fleas; format: in vivo; settings: 5 μg/cm^2, adult cat fleas, after 48 h
Description: For the coating of the test tubes, 9 mg of active ingredient are first dissolved in 1 ml of acetone p.a. and then diluted to the desired concentration with acetone p.a. 250 μl of the solution are distributed homogeneously on the inner walls and base of a 25 ml test tube by turning and rocking on an orbital shaker (rocking rotation at 30 rpm for 2 h). With 900 ppm active ingredient solution and internal surface area 44.7 cm^2, given homogeneous distribution, an area-based dose of 5 μg/cm^2 is achieved.
After the solvent has evaporated off, the tubes are populated with 5-10 adult cat fleas (Ctenocephalides felis), sealed with a perforated plastic lid and incubated in a horizontal position at room temperature and ambient humidity. After 48 h, efficacy is determined. To this end, the test tubes are stood upright and the fleas are knocked to the base of the tube. Fleas which remain motionless at the base or move in an uncoordinated manner are considered to be dead or moribund.
100% efficacy means that all the fleas were dead or moribund. 0% efficacy means that no fleas were harmed.

Amblyomma hebraeum = test: Amblyomma hebaraeum - test (tick nymphs, immersion); format: in vivo; settings: 100 ppm, tick nymphs immersed one minute, after 42 days
Description: as §3, §10
Tick nymphs (Amblyomma hebraeum) are placed into perforated plastic beakers and immersed in the desired concentration for one minute. The ticks are transferred on filter paper into a Petri dish and stored in a climate-controlled cabinet.
After 42 days, the kill in % is determined 100% means that all of the ticks have been killed; 0% means that none of the ticks have been killed.

[4] = test system: Aedes aegypti strain MONHEIM; test: Aedes test (AEDSAE surface treatment); format: in vivo; settings: read-out: efficacy (mortality in %)
Description: as §7
as §8, with “Aedes aegypti” for “Anopheles funestus”, “MONHEIM” for “FUMOZ-R (Hunt et al., Med Vet Entomol. 2005 September; 19(3):271-5)”
as §9

[5] = test system: Boophilus microplus Parkhurst strain, SP-resistant; test: Boophilus microplus - dip test; format: in vivo; settings: 100 ppm, adult engorged female cattle ticks, after 7 days
Description: Test animals: cattle ticks (Boophilus microplus) Parkhurst strain, SP-resistant
as §3
10 mg of active ingredient are dissolved in 0.5 ml of dimethyl sulphoxide. For the purpose of producing a suitable formulation, the active ingredient solution is diluted with water to the concentration desired in each case.
This active ingredient formulation is pipetted into tubes. 8-10 adult engorged female cattle ticks (Boophilus microplus) are transferred into a further tube with holes. The tube is immersed into the active ingredient formulation, and all the ticks are completely wetted. After the liquid has run out, the ticks are transferred on filter discs into plastic dishes and stored in a climate-controlled room.
(§11) Efficacy is assessed after 7 days by laying of fertile eggs. Eggs which are not visibly fertile are stored in a climate-controlled cabinet until the larvae hatch after about 42 days. An efficacy of 100% means that none of the ticks has laid any fertile eggs; 0% means that all the eggs are fertile.

Tetranychus urticae = Tetranychus urticae - spray test, OP-resistant; format: in vivo; settings: 100 g/ha, bean leaf discs, after 6 days
Description: Solvent: 78.0 parts by weight of acetone
as §1, §2
Discs of bean leaves (Phaseolus vulgaris) infested by all stages of the greenhouse red spider mite (Tetranychus urticae) are sprayed with an active ingredient formulation of the desired concentration.
After 6 days, efficacy in % is determined 100% means that all the spider mites have been killed; 0% means that none of the spider mites have been killed.

Ctenocephalides felis [6] = test: Ctenocephalides felis - oral test; format: in vivo; settings: 100 ppm in citrated cattle blood, adult cat fleas, after 2 days
Description: as §3, §4, §5, §6

[7] = logP by HPLC on reversed-phase column (C18), EEC Directive 79/831 Annex V.A8; format: physicochemical; settings: HPLC, reversed-phase C18, acetonitrile (0.1% formic acid)/water (0.09% formic acid) gradient
Boophilus microplus = Boophilus microplus - injection test (BBOMI Inj); format: in vivo; settings: 4 μg/animal, injected into engorged adult female cattle ticks, after 7 days
Description: as §3
To produce an appropriate active ingredient formulation, 10 mg of active ingredient are mixed with 0.5 ml of solvent and the concentrate is diluted with solvent to the desired concentration.
1 μl of the active ingredient solution is injected into the abdomen of 5 engorged adult female cattle ticks (Boophilus microplus). The animals are transferred into dishes and kept in a climate-controlled room.
as §11

## Cc1cc(C(F)(C(F)(F)F)C(F)(F)F)cc(C)c1-c1cn(-c2ccc(Cl)c(C(=O)NC3CC3)c2)nn1 [I-T48-1, 2-chloro-N-cyclopropyl-5-[4-[2,6-dimethyl-4-[1,2,2,2-tetrafluoro-1-(trifluoromethyl)ethyl]phenyl]triazol-1-yl]benzamide]
Myzus persicae
  efficacy (aphids killed): 100%
Ctenocephalides felis [1]
  efficacy (kill in %): 100%
[2]
  mortality at 100 mg/m2: 90 to 100%
Musca domestica
  efficacy (kill in %): 100%
Ctenocephalides felis [3]
  efficacy (dead or moribund): 100%
Amblyomma hebraeum
  efficacy (kill in %): 100%
[4]
  mortality at 20 mg/m2: 90 to 100%
  mortality at 100 mg/m2: 90 to 100%
[5]
  efficacy (no fertile eggs laid): 100%
Tetranychus urticae
  efficacy (spider mites killed): 100%
Ctenocephalides felis [6]
  efficacy (kill in %): 100%
[7]
  chromatographic logP: 4.19
Boophilus microplus
  efficacy (no fertile eggs laid): 100%
